# Test results from ChEMBL document CHEMBL1146571, “Mycalosides B-I, eight new spermostatic steroid oligoglycosides from the sponge Mycale laxissima” (J Nat Prod, 2003).
# Assay: Spermatostatic activity against Strongylocentrotus nudus sperm assessed as inhibition of egg fertilization preincubated 15 mins before artificial insemination
# Assay type: functional, cell-based, Mesocentrotus nudus
row,EC50 [µg/mL],Structure (SMILES)
1,3.2,CC(C)[C@H](C)/C=C/[C@@H](CO)[C@H]1C[C@H](O)[C@H]2[C@@H]3CC=C4[C@@H](O)[C@@H](O[C@@H]5O[C@H](CO)[C@@H](O[C@@H]6O[C@H](CO)[C@H](O)[C@H](O)[C@H]6O)[C@H](O[C@@H]6OC[C@@H](O)[C@@H](O)[C@@H]6O[C@H]6O[C@H](CO)[C@H](O)[C@H](O)[C@H]6O)[C@H]5O)CC[C@]4(C)[C@H]3CC[C@@]21C [MYCALOSIDE A]
2,3.2,CC(C)CCC[C@@H](CO)[C@H]1CC(=O)[C@H]2[C@@H]3CC=C4[C@@H](O)[C@@H](O[C@@H]5O[C@H](CO)[C@@H](O[C@@H]6O[C@H](CO)[C@H](O)[C@H](O)[C@H]6O)[C@H](O[C@@H]6OC[C@@H](O)[C@@H](O)[C@@H]6O[C@H]6O[C@H](CO)[C@H](O)[C@H](O)[C@H]6O)[C@H]5O)CC[C@]4(C)[C@H]3CC[C@]12C [MYCALOSIDE G]
